According to publication PMC7177849, “Gut Microbial Catabolites of Tryptophan Are Ligands and Agonists of the Aryl Hydrocarbon Receptor: A Detailed Characterization” (International Journal of Molecular Sciences, 2020):
Values joined by “and” are separate entries in the source; they are usually repeats but may differ in a detail not shown here. Identical values can stand only once. Like-named read-outs stand apart in the source and are kept apart here.

Assays:
[1] = target: T1, AhR (Homo sapiens, UniProt P35869); experiment: Reporter gene assay in AZ-AHR cells, agonist analyses (luciferase)
T1 sequence (P35869 11-848): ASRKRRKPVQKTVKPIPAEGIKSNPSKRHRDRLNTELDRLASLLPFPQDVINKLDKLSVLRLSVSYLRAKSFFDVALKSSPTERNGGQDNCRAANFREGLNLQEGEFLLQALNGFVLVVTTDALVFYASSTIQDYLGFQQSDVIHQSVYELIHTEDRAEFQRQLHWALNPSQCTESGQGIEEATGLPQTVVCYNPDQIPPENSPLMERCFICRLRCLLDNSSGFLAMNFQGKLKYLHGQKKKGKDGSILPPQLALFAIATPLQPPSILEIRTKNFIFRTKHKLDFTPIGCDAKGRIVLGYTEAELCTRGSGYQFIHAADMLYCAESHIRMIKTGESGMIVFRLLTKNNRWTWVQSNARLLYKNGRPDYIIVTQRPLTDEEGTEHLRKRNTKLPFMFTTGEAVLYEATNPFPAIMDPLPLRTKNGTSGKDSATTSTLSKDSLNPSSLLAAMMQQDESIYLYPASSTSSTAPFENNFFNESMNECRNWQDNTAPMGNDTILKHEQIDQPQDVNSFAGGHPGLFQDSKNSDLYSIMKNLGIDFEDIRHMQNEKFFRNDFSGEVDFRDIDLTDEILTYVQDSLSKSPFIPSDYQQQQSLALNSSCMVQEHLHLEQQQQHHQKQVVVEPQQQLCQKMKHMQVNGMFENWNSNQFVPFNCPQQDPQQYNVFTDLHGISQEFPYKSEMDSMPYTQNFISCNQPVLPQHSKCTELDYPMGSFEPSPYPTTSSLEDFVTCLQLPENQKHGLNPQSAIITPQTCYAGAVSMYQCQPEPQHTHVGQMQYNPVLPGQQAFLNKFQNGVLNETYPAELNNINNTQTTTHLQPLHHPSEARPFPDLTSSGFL
Description: (§1) In the first series of experiments, we evaluated the agonistic and antagonistic effects of MICT on the AhR activation. […] The antagonistic effects of MICT were evaluated against typical full agonists of the AhR, comprising TCDD, BaP, and FICZ, which were applied at fixed concentrations corresponding to their EC80.
(§2) Following the treatments, we lysed cells, and luciferase activity was measured. Experiments were performed at least in four consecutive cell passages. Incubations were performed in quadruplicates (technical replicates). In agonist analyses, the data from a representative experiment, expressed as a fold induction of luciferase activity over control cells, are shown. In antagonist analyses, the data are a percentage of maximal induction, and they are the mean ± SD.
(§3) Then, cells were lysed, and luciferase activity was measured using the Tecan Infinite M200 plate luminometer (Schoeller Instruments, Czech Republic). The experiments were performed in at least four consecutive cell passages, and the treatments were in quadruplicates (technical replicates). The values of half-maximal effective concentration (EC50) for each MICT, and half-maximal inhibitory concentration (IC50—where appropriate) were calculated.
Supplementary Figure 2. Tryptophan effects in culture medium on AhR activity. (A) Time-course of Trp
levels in culture media from hepatic (AZ-AHR), instestinal (LS174T) and skin (HaCaT) cells. Determined by
HPLC. (B) Induction of AhR-dependent luciferase activity in AZ-AHR cells incubated for 24 h with TCDD,
Indole and Trp in Trp/serum-free culture medium. (C) Induction of AhR-dependent luciferase activity in
AZ-AHR cells incubated for 24 h with TCDD and Indole in standard (+Trp/+FBS), serum-free (+Trp/-FBS),
Trp-free (-Trp/+FBS) and Trp/serum-free (-Trp/-FBS) culture medium. […]

[2] = target: T1, AhR; experiment: Reporter gene assay in AZ-AHR cells, antagonist analyses against TCDD, BaP, FICZ; settings: for antagonistic effect against full agonists / effect on AhR activation by BaP / effect on AhR activation by FICZ / effect on AhR activation by TCDD: AZ-AHR cells, 24 h; for antagonistic effect against full agonists: TCDD, BaP and FICZ at EC80; for effect on AhR activation by BaP: BaP 15.8 µM; for effect on AhR activation by FICZ: FICZ 22.6 µM; for effect on AhR activation by TCDD: TCDD 13.5 nM
Description: as §1
as §2, with “AZ-AHR cells were incubated for 24 h with vehicle (DMSO; 0.1% v/v) and increasing concentrations of MICT, in the absence (agonist analyses) or the presence (antagonist analyses) of TCDD (13.5 nM), BaP (15.8 µM) and FICZ (22.6 µM). Following” for “Following”
as §3, with “AZ-AHR cells were incubated for 24 h with vehicle (DMSO; 0.1% v/v) and increasing concentrations of tested MICT in the presence or absence of TCDD (13.5 nM), FICZ (22.6 µM), or BaP (15.8 µM). Then,” for “Then,”

[3] = target: T2, AhR-ARNT heterodimer (Homo sapiens, UniProt P35869); experiment: Protein co-immunoprecipitation, formation of AhR-ARNT heterodimer in LS180 cells; type: cell-based; settings: 90 min
T2 construct: 0.1% V/V) for 90 min at 37 °C; host or cells: LS180 cells
T2 sequence (P27540 whole entry partner, one chain of several): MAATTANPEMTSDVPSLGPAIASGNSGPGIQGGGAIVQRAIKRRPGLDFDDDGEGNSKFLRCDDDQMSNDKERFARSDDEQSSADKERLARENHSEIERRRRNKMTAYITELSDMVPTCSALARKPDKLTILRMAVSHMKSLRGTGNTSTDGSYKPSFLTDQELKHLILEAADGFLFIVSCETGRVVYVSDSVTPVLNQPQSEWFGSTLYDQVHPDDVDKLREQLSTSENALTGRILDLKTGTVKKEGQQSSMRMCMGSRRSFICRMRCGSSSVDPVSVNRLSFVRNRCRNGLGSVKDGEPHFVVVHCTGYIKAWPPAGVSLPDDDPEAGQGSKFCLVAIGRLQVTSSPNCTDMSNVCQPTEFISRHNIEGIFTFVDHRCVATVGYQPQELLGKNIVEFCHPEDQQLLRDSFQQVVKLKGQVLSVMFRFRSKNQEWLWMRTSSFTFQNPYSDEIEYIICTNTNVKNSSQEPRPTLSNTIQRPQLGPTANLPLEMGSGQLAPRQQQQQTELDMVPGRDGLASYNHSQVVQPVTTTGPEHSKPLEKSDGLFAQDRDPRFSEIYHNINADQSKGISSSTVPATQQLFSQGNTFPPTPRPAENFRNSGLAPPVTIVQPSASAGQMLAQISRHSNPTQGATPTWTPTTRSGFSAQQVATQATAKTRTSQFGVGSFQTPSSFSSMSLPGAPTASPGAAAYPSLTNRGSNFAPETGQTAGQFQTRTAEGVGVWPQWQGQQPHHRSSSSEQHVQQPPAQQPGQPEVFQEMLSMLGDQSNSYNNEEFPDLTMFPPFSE
Description: Figure 6 MICTs induce a formation of the AhR-ARNT heterodimer. Intestinal LS180 cells were incubated with TCDD, tested MICT, and vehicle (DMSO; 0.1% V/V) for 90 min. Protein co-immunoprecipitation of ARNT was carried out, as described in the Methods section. The representative immunoblots of immuno-precipitated protein eluates and total cell lysates are shown. The experiments were performed in two consecutive cell passages.
Intestinal LS180 cells were incubated with TCDD, tested MICT, and vehicle (DMSO; 0.1% V/V) for 90 min at 37 °C. The Pierce™ Co-Immunoprecipitation Kit (Thermo Fisher Scientific) with covalently coupled AhR antibody (mouse monoclonal, sc-133088, A-3, Santa Cruz Biotechnology) was used. Eluted protein complexes and total parental lysates were resolved on SDS-PAGE gels followed by Western Blot analysis and immuno-detection with ARNT-1 antibody (mouse monoclonal, sc-17812, G-3, Santa Cruz Biotechnology). Chemiluminescent detection was performed using horseradish peroxidase-conjugated anti-mouse secondary antibody (7076S, Cell Signaling Technology) and WesternSure® PREMIUM Chemiluminescent Substrate (LI-COR Biotechnology) by C-DiGit® Blot Scanner (LI-COR Biotechnology).

[4] = EC50, AZ-AHR cells, 24 h, agonist analyses
[5] = read-out: fold induction of luciferase activity (efficacy)

SMILES	EC50 [1, 4]	Efficacy (EMAX) ([1]; Table 1 summary class)	Potency (EC50) ([1]; Table 1 summary class)	antagonistic effect against full agonists [2]	Antagonism (IC50) ([2]; Table 1 summary class)	effect on AhR activation by BaP [2]	effect on AhR activation by TCDD [2]	formation of AhR-ARNT heterodimer [3]	also measured
O=Cc1c[nH]c2ccccc12 [IA, indole-3-aldehyde]	62.2 µM and 62 µM	low	low	dose-dependent antagonistic effect	yes–all ligands				IC50 [2]: 100 to 200 µM
O=C(O)C(O)Cc1c[nH]c2ccccc12 (stereo not drawn) [ILA, indole-3-lactate]	82 ± 17.1 µM	low		no antagonistic effects					Potency (EC50) [1]: low; Antagonism (IC50) [2]: none
O=C(O)C(=O)Cc1c[nH]c2ccccc12 [IPY, indole-3-pyruvate]	98.5 ± 10.1 µM	high	low		ligand selective	potentiated	antagonized	induce a formation of AhR-ARNT heterodimer	effect on AhR activation by FICZ [2]: potentiated
NC(=O)Cc1c[nH]c2ccccc12 [IAD, indole-3-acetamide]	99.9 ± 2.86 µM	high	low			potentiated	antagonized	induce a formation of AhR-ARNT heterodimer	effect on AhR activation by FICZ [2]: potentiated
c1ccc2[nH]ccc2c1 [IND, indole]				dose-dependent antagonistic effect	yes–all ligands			induce a formation of AhR-ARNT heterodimer	Efficacy (EMAX) [1]: high; Potency (EC50) [1]: very low; induced luciferase activity [1]: 500 fold; EC50 ([1]; EC50): ~1500 µM and 1480 µM; fold induction at 10000 µM [1, 5]: 200 to 600
O=C(O)/C=C/c1c[nH]c2ccccc12 [IAC, indole-3-acrylate]	42.3 ± 3.32 µM	medium	low	no antagonistic effects	none			induce a formation of AhR-ARNT heterodimer	fold induction at 100 µM [1, 5]: 40 to 100
NCCc1c[nH]c2ccccc12 [TA, tryptamine]	83.1 ± 12.7 µM	medium	low	dose-dependent antagonistic effect	yes–all ligands			induce a formation of AhR-ARNT heterodimer	
Clc1cc2c(cc1Cl)Oc1cc(Cl)c(Cl)cc1O2 [TCDD, 2,3,7,8-tetrachlorodibenzo-p-dioxin, reference compound]									induced luciferase activity ([1]; AZ-AHR cells, 24 h, Trp-free/serum-free medium): 10000 fold
Cc1c[nH]c2ccccc12 [3MI, skatole]	103 ± 1.78 µM	medium	low	ligand-selective antagonism	ligand selective	dose-dependently inhibited	dose-dependently inhibited	induce a formation of AhR-ARNT heterodimer	
OCCc1c[nH]c2ccccc12 [IET, indole-3-ethanol]	98 ± 6.41 µM	medium	low	no antagonistic effects					
